Assay results published in ChEMBL document CHEMBL3779790, “Novel Imbricatolic acid derivatives as protein tyrosine phosphatase-1B inhibitors: Design, synthesis, biological evaluation and molecular docking” (Bioorg Med Chem Lett, 2016).

Experiments:
[1] = target: T1, Tyrosine-protein phosphatase non-receptor type 1 (Homo sapiens) (UniProt P18031); experiment: Inhibition of human recombinant PTP-1B using IR5 insulin receptor residues as substrate at 10 uM after 30 mins by malachite green assay
T1 sequence (whole entry): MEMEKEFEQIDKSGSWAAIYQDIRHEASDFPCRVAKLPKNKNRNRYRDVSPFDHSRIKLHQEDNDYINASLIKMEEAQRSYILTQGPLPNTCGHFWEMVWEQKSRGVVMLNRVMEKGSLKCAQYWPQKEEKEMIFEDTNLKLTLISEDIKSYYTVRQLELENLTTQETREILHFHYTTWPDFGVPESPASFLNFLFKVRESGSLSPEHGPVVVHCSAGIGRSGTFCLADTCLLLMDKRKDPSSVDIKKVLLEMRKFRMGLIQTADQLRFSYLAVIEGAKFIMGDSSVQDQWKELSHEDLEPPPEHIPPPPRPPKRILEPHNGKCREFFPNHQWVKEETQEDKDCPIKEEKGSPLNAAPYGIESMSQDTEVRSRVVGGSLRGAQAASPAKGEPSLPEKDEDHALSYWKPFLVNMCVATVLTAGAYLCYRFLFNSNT

[2] = target: T1, Tyrosine-protein phosphatase non-receptor type 1 (Homo sapiens); experiment: Inhibition of human recombinant PTP-1B using IR5 insulin receptor residues as substrate at 5 uM after 30 mins by malachite green assay
[3] = target: T2, Tyrosine-protein phosphatase non-receptor type 1 (Homo sapiens, UniProt P18031); experiment: Inhibition of human recombinant PTP-1B using IR5 insulin receptor residues as substrate after 30 mins by malachite green assay
T2 sequence (P18031 whole entry): T1 sequence (whole entry)

[4] = target: T1, Tyrosine-protein phosphatase non-receptor type 1 (Homo sapiens); experiment: Inhibition of human recombinant PTP-1B using IR5 insulin receptor residues as substrate at 30 uM after 30 mins by malachite green assay
[5] = target: T1, Tyrosine-protein phosphatase non-receptor type 1 (Homo sapiens); experiment: Inhibition of human recombinant PTP-1B using IR5 insulin receptor residues as substrate at 100 uM after 30 mins by malachite green assay
[6] = target: T1, Tyrosine-protein phosphatase non-receptor type 1 (Homo sapiens); experiment: Inhibition of human recombinant PTP-1B using IR5 insulin receptor residues as substrate at 1 uM after 30 mins by malachite green assay

| Compound | inhibition [1] [%] | inhibition [2] [%] | IC50 [3] [µM] | inhibition [4] [%] | inhibition [5] [%] | inhibition [6] [%] |
| --- | --- | --- | --- | --- | --- | --- |
| C=C1CC[C@@H]2[C@](C)(CCC[C@]2(C)C(=O)O)[C@H]1CC[C@H](C)CC(=O)O | 35.6 | – | – | – | – | – |
| C=C1CC[C@@H]2[C@](C)(CCC[C@]2(C)C(=O)O)[C@H]1CC[C@H](C)C/C=N/O | 40.1 | – | – | – | – | – |
| C=C1CC[C@@H]2[C@](C)(CCC[C@]2(C)N=C=O)[C@H]1CC[C@H](C)C/C=N/OC(C)=O | 44.8 | – | – | – | – | – |
| C=C1CC[C@@H]2[C@](C)(CCC[C@]2(C)N=C=O)[C@H]1CC[C@H](C)CCO | 41.3 | – | – | – | – | – |
| C=C1CC[C@@H]2[C@](C)(CCC[C@]2(C)NC(N)=O)[C@H]1CC[C@H](C)C/C=N/O | 59.9 | 38.2 | 7.8 | 63.2 | 69.2 | 7.1 |
| C=C1CC[C@@H]2[C@](C)(CCC[C@]2(C)C(=O)OCC)[C@H]1CC[C@H](C)CCO | 23.1 | – | – | – | – | – |
| C=C1CC[C@@H]2[C@](C)(CCC[C@]2(C)NC(N)=O)[C@H]1CC[C@H](C)CNC(N)=O | 65.8 | 37.3 | 6.8 | 67.2 | 79.2 | 9.3 |
| C=C1CC[C@H]2[C@@](C)(CO)CCC[C@]2(C)[C@H]1CC[C@H](C)CCO | 29.5 | – | – | – | – | – |
| C=C1CC[C@@H]2[C@](C)(CCC[C@]2(C)C(=O)O)[C@H]1CC[C@H](C)C/C=N/OC(C)=O | 43.5 | – | – | – | – | – |
| Cc1ccc(C(=O)Nc2ccc(S(=O)(=O)O)c3cc(S(=O)(=O)O)cc(S(=O)(=O)O)c23)cc1NC(=O)c1cccc(NC(=O)Nc2cccc(C(=O)Nc3cc(C(=O)Nc4ccc(S(=O)(=O)O)c5cc(S(=O)(=O)O)cc(S(=O)(=O)O)c45)ccc3C)c2)c1 | 64.3 | – | – | – | – | – |

Now from value to compound:

| inhibition [1] [%] | inhibition [2] [%] | IC50 [3] [µM] | inhibition [4] [%] | inhibition [5] [%] | inhibition [6] [%] | Compound |
| --- | --- | --- | --- | --- | --- | --- |
| 34.2 | – | – | – | – | – | C=C1CC[C@H]2[C@@](C)(COC(C)=O)CCC[C@]2(C)[C@H]1CC[C@H](C)CCOC(C)=O |
| 45.7 | – | – | – | – | – | C=C1CC[C@@H]2[C@](C)(CCC[C@]2(C)N=C=O)[C@H]1CC[C@H](C)CN=C=O |
| 61.5 | 25.9 | 6.3 | 79.2 | 87.2 | 8.2 | C=C1CC[C@@H]2[C@](C)(CCC[C@]2(C)NC(N)=O)[C@H]1CC[C@H](C)CCO |
| 65.3 | 31.7 | 7 | 79.1 | 82.2 | 11.2 | C=C1CC[C@@H]2[C@](C)(CCC[C@]2(C)NC(N)=O)[C@H]1CC[C@H](C)C/C=N/OC(C)=O |
| 59.2 | 19.2 | 8.8 | 67.2 | 71.1 | 5.9 | C=C1CC[C@@H]2[C@](C)(CCC[C@]2(C)C(=O)O)[C@H]1CC[C@H](C)CCO [IMBRICATOLIC ACID] |
| 19.9 | – | – | – | – | – | C=C1CC[C@@H]2[C@](C)(CCC[C@]2(C)C(=O)O)[C@H]1CC[C@H](C)CC=O |
